{
  "source": "paper PMC9954146",
  "about": "“Anti-Leukaemic Activity of Rilpivirine Is Mediated by Aurora A Kinase Inhibition” (Cancers, 2023)",
  "assay_in_all_cases": "Kinase panel",
  "assay_type_in_all_cases": "biochemical",
  "details_in_all_cases": "read-out: % Residual Activity",
  "key": {"[1]": {"biological_target": "T1, cKit(D816V)(h) (Homo sapiens, UniProt P10721, D816V)", "T1 construct": "purchased Eurofins (KinaseProfiler)", "how_it_was_run": "(§1)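 Selectivity panel (kinome-wide), rilpivirine as test compound. Readout: radiolabel incorporation. ATP = Km of the respective kinase. Ki calculated from IC50 (Cheng–Prusoff).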"}, "[2]": {"biological_target": "T2, cKit(V560G)(h) (Homo sapiens, UniProt P10721, V560G)", "T2 construct": "purchased Eurofins (KinaseProfiler)", "how_it_was_run": "as §1"}, "[3]": {"biological_target": "T3, Arg(h) (Homo sapiens, UniProt P42684)", "T3 construct": "purchased Eurofins (KinaseProfiler)", "how_it_was_run": "as §1"}, "[4]": {"biological_target": "PI3 Kinase (p110d/p85a)(m) (Mus musculus, UniProt O35904)", "how_it_was_run": "as §1"}, "[5]": {"biological_target": "T4, NEK1(h) (Homo sapiens, UniProt Q96PY6)", "T4 construct": "purchased Eurofins (KinaseProfiler)", "how_it_was_run": "as §1"}, "[6]": {"biological_target": "T5, CDKL1(h) (Homo sapiens, UniProt Q00532)", "T5 construct": "purchased Eurofins (KinaseProfiler)", "how_it_was_run": "as §1"}, "[7]": {"biological_target": "T6, MKK6(h) (Homo sapiens, UniProt P52564)", "T6 construct": "purchased Eurofins (KinaseProfiler)", "how_it_was_run": "as §1"}, "[8]": {"biological_target": "T7, MAPK1(h) (Homo sapiens, UniProt P27361)", "T7 construct": "purchased Eurofins (KinaseProfiler)", "how_it_was_run": "as §1"}, "[9]": {"biological_target": "T8, STK39(h) (Homo sapiens, UniProt Q9UEW8)", "T8 construct": "purchased Eurofins (KinaseProfiler)", "how_it_was_run": "as §1"}, "[10]": {"biological_target": "T9, KDR(h) (Homo sapiens, UniProt P35968)", "T9 construct": "purchased Eurofins (KinaseProfiler)", "T9 sequence (P35968 20-1356)": "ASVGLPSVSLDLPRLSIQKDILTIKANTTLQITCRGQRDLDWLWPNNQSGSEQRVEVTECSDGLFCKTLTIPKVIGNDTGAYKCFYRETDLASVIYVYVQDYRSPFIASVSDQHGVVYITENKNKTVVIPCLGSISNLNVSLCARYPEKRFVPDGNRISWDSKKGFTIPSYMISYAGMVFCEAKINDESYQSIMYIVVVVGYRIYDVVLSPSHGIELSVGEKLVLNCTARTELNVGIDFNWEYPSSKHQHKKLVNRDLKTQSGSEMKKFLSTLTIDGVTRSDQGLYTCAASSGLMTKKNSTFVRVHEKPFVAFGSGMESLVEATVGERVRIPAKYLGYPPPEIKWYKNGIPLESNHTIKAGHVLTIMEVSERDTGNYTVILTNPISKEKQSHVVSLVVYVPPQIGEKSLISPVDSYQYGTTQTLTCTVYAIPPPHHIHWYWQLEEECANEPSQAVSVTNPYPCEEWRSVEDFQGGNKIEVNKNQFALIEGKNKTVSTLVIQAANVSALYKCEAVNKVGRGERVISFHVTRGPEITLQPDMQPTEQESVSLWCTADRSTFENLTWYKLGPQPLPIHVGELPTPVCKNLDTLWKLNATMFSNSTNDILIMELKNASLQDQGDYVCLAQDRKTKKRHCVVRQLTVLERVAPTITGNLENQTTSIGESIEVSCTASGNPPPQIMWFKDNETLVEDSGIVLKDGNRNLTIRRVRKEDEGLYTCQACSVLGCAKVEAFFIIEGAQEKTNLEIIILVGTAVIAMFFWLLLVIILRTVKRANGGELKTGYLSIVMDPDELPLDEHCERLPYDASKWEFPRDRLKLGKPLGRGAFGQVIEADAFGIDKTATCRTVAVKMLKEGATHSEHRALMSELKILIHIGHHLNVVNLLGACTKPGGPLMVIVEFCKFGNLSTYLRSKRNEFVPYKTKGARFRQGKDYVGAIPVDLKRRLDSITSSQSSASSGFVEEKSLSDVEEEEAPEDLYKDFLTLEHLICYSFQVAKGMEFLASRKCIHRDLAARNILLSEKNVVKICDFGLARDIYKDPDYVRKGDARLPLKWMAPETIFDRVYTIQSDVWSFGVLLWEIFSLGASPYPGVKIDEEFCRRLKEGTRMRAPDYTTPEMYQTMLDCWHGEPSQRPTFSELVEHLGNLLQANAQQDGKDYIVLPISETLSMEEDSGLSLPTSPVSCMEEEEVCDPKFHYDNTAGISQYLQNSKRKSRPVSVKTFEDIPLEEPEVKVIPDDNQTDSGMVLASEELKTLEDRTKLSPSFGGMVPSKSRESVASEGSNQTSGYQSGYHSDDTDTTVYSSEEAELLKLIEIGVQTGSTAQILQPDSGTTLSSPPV", "how_it_was_run": "as §1"}, "[11]": {"biological_target": "T10, Itk(h) (Homo sapiens, UniProt Q08881)", "T10 construct": "purchased Eurofins (KinaseProfiler)", "how_it_was_run": "as §1"}, "[12]": {"biological_target": "T11, PRP4(h) (Homo sapiens, UniProt Q13523)", "T11 construct": "purchased Eurofins (KinaseProfiler)", "how_it_was_run": "as §1"}, "[13]": {"biological_target": "T12, MARK3(h) (Homo sapiens, UniProt P27448)", "T12 construct": "purchased Eurofins (KinaseProfiler)", "how_it_was_run": "as §1"}, "[14]": {"biological_target": "T13, CaMKIIδ(h) (Homo sapiens, UniProt Q13557)", "T13 construct": "purchased Eurofins (KinaseProfiler)", "how_it_was_run": "as §1"}, "[15]": {"biological_target": "T14, IRAK4(h) (Homo sapiens, UniProt Q9NWZ3)", "T14 construct": "purchased Eurofins (KinaseProfiler)", "how_it_was_run": "as §1"}, "[16]": {"biological_target": "T15, CaMKIδ(h) (Homo sapiens, UniProt Q8IU85)", "T15 construct": "purchased Eurofins (KinaseProfiler)", "how_it_was_run": "as §1"}, "[17]": {"biological_target": "T16, Met(Y1248C)(h) (Homo sapiens, UniProt P08581, Y1230C)", "T16 construct": "purchased Eurofins (KinaseProfiler)", "T16 sequence (P08581 956-1390 Y1230C limits assumed)": "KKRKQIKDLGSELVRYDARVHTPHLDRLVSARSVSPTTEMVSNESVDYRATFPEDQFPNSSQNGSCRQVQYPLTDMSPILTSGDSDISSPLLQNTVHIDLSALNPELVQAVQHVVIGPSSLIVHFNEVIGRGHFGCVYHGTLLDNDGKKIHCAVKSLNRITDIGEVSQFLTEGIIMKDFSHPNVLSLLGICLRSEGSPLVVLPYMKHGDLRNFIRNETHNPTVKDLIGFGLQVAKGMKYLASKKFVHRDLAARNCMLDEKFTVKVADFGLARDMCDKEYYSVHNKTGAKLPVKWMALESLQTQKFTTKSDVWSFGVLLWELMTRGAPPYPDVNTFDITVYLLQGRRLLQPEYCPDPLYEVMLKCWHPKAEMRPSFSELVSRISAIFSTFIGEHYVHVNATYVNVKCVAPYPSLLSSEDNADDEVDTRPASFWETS", "how_it_was_run": "as §1"}, "[18]": {"biological_target": "T17, Rsk2(h) (Homo sapiens, UniProt P51812)", "T17 construct": "purchased Eurofins (KinaseProfiler)", "how_it_was_run": "as §1"}, "[19]": {"biological_target": "T18, CDK13/cyclinK(h) (Homo sapiens, UniProt Q14004)", "T18 construct": "purchased Eurofins (KinaseProfiler)", "how_it_was_run": "as §1"}, "[20]": {"biological_target": "T19, SAPK2a(h) (Homo sapiens, UniProt Q16539)", "T19 construct": "purchased Eurofins (KinaseProfiler)", "how_it_was_run": "as §1"}, "[21]": {"biological_target": "T20, LIMK2(h) (Homo sapiens, UniProt P53671)", "T20 construct": "purchased Eurofins (KinaseProfiler)", "how_it_was_run": "as §1"}, "[22]": {"biological_target": "T21, DRAK2(h) (Homo sapiens, UniProt O94768)", "T21 construct": "purchased Eurofins (KinaseProfiler)", "how_it_was_run": "as §1"}, "[23]": {"biological_target": "T22, c-RAF(h) (Homo sapiens, UniProt P04049)", "T22 construct": "purchased Eurofins (KinaseProfiler)", "how_it_was_run": "as §1"}, "[24]": {"biological_target": "T23, TLK2(h) (Homo sapiens, UniProt Q86UE8)", "T23 construct": "purchased Eurofins (KinaseProfiler)", "how_it_was_run": "as §1"}, "[25]": {"biological_target": "T24, BIKe(h) (Homo sapiens, UniProt Q9NSY1)", "T24 construct": "purchased Eurofins (KinaseProfiler)", "how_it_was_run": "as §1"}, "[26]": {"biological_target": "T25, FGFR1(V561M)(h) (Homo sapiens, UniProt P11362, V561M)", "T25 construct": "purchased Eurofins (KinaseProfiler)", "how_it_was_run": "as §1"}, "[27]": {"biological_target": "T26, BrSK2(h) (Homo sapiens, UniProt Q8IWQ3)", "T26 construct": "purchased Eurofins (KinaseProfiler)", "how_it_was_run": "as §1"}, "[28]": {"biological_target": "T27, Axl(h) (Homo sapiens, UniProt P30530)", "T27 construct": "purchased Eurofins (KinaseProfiler)", "how_it_was_run": "as §1"}, "[29]": {"biological_target": "T28, JAK3(h) (Homo sapiens, UniProt P52333)", "T28 construct": "purchased Eurofins (KinaseProfiler)", "how_it_was_run": "as §1"}, "[30]": {"biological_target": "T29, Wee1(h) (Homo sapiens, UniProt P30291)", "T29 construct": "purchased Eurofins (KinaseProfiler)", "how_it_was_run": "as §1"}, "[31]": {"biological_target": "T30, JNK2α2(h) (Homo sapiens, UniProt P45984)", "T30 construct": "purchased Eurofins (KinaseProfiler)", "T30 sequence (P45984 whole entry)": "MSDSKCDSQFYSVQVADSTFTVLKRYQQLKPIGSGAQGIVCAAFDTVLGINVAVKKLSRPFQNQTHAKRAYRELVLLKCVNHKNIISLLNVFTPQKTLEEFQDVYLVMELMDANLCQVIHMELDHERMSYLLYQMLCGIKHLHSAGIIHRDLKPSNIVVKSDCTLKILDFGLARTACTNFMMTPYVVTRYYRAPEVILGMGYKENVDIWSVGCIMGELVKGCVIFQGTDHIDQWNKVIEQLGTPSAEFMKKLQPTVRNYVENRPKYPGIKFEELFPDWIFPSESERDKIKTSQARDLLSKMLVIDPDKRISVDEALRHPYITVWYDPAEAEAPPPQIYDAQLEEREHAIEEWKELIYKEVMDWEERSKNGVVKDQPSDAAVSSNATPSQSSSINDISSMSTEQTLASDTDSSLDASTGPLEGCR", "how_it_was_run": "as §1"}, "[32]": {"biological_target": "T31, IGF-1R(h), activated (Homo sapiens, UniProt P08069)", "T31 construct": "purchased Eurofins (KinaseProfiler)", "how_it_was_run": "as §1"}, "[33]": {"biological_target": "T32, mTOR/FKBP12(h) (Homo sapiens, UniProt P42345)", "T32 construct": "purchased Eurofins (KinaseProfiler)", "T32 sequence (P42345 1362-2549 limits assumed)": "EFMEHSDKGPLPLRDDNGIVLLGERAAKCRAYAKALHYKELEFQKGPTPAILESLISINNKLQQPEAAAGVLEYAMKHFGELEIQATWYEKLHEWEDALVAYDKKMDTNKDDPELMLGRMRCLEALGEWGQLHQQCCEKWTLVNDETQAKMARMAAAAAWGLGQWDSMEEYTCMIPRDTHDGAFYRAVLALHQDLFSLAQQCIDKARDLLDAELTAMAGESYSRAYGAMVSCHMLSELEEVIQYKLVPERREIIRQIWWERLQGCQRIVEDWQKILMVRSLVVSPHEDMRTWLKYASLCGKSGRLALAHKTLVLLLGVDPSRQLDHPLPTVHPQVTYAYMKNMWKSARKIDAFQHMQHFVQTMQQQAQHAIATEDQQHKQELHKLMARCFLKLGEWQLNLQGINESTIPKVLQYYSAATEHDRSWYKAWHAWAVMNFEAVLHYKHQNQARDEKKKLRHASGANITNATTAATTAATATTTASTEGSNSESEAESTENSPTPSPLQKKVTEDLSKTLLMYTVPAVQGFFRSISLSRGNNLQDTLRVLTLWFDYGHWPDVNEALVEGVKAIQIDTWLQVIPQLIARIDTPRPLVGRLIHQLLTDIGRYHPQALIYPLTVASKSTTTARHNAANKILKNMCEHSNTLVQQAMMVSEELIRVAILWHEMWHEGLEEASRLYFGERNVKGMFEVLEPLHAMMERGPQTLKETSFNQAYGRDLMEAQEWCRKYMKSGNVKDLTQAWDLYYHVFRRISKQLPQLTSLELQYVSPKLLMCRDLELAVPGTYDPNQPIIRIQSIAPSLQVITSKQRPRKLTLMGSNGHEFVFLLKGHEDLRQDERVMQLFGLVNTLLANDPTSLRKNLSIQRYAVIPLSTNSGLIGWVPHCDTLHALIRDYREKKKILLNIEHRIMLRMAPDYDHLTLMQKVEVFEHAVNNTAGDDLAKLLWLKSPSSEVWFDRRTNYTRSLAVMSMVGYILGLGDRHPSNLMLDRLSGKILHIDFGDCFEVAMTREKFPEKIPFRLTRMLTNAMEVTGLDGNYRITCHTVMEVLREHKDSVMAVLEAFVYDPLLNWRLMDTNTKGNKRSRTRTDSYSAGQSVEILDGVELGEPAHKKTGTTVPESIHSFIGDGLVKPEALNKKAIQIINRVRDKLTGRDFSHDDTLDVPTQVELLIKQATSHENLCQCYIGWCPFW", "how_it_was_run": "as §1"}, "[34]": {"biological_target": "T33, CLK4(h) (Homo sapiens, UniProt Q9HAZ1)", "T33 construct": "purchased Eurofins (KinaseProfiler)", "how_it_was_run": "as §1"}, "[35]": {"biological_target": "T34, PKBα(h) (Homo sapiens, UniProt P31749)", "T34 construct": "purchased Eurofins (KinaseProfiler)", "T34 sequence (P31749 whole entry)": "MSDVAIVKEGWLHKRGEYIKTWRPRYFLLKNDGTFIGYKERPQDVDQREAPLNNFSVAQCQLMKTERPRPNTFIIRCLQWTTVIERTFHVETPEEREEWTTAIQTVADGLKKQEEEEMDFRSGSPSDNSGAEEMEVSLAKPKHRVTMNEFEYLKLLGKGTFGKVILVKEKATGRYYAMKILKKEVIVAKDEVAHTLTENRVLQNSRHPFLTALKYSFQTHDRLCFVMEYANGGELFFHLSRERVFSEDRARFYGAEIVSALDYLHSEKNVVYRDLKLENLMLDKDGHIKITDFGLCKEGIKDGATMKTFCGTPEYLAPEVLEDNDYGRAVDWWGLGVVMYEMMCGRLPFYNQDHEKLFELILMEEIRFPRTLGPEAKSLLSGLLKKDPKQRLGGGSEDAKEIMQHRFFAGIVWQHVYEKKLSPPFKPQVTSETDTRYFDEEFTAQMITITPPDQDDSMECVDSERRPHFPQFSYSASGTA", "how_it_was_run": "as §1"}, "[36]": {"biological_target": "T35, Txk(h) (Homo sapiens, UniProt P42681)", "T35 construct": "purchased Eurofins (KinaseProfiler)", "how_it_was_run": "as §1"}, "[37]": {"biological_target": "T36, JAK2(h) (Homo sapiens, UniProt O60674)", "T36 construct": "purchased Eurofins (KinaseProfiler)", "T36 sequence (O60674 whole entry)": "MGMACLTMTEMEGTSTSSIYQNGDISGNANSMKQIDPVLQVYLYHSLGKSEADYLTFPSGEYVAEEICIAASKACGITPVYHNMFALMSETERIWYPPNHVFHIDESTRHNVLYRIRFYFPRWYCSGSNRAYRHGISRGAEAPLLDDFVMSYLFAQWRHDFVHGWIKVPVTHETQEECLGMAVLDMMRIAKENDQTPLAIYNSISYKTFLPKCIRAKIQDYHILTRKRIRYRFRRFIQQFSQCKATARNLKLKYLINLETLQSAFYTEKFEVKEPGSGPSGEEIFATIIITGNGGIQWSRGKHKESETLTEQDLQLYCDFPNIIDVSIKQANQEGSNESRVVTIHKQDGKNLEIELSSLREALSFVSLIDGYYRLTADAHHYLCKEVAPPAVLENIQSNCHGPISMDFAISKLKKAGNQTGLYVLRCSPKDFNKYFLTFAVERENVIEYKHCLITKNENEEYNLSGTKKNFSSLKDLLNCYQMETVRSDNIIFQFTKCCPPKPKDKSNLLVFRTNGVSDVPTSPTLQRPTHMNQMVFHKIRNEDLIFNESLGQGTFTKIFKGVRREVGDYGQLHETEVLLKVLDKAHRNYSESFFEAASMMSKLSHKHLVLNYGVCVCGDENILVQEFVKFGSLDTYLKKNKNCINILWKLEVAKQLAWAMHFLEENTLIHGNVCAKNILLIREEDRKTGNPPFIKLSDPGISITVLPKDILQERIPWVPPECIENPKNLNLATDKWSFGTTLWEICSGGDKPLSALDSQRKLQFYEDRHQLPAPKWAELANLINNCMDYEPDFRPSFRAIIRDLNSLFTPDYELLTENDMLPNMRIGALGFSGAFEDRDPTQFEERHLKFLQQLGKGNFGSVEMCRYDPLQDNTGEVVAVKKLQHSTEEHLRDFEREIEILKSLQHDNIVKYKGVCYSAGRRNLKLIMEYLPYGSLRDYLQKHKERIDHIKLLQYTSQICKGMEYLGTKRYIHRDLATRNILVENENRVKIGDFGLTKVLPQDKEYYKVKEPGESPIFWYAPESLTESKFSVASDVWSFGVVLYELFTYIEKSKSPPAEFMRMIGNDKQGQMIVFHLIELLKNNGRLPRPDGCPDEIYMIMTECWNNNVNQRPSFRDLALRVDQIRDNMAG", "how_it_was_run": "as §1"}, "[38]": {"biological_target": "T37, CaMKK1(h) (Homo sapiens, UniProt Q8N5S9)", "T37 construct": "purchased Eurofins (KinaseProfiler)", "how_it_was_run": "as §1"}},
  "data": [
    {"smiles": "Cc1cc(/C=C/C#N)cc(C)c1Nc1ccnc(Nc2ccc(C#N)cc2)n1", "note": "[rilpivirine, (E)-4-((4-((4-(2-cyanoethenyl)-2,6-dimethylphenyl)amino)pyrimidin-2-yl)amino)benzonitrile]", "values": [
      {"measurement": "remaining activity at 1 µM", "setting": "[1]", "value": 88, "unit": "%"},
      {"measurement": "remaining activity at 1 µM", "setting": "[2]", "value": 74, "unit": "%"},
      {"measurement": "remaining activity at 1 µM", "setting": "[3]", "value": 70, "unit": "%"},
      {"measurement": "remaining activity at 1 µM", "setting": "[4]", "value": 99, "unit": "%"},
      {"measurement": "remaining activity at 1 µM", "setting": "[5]", "value": 86, "unit": "%"},
      {"measurement": "remaining activity at 1 µM", "setting": "[6]", "value": 75, "unit": "%"},
      {"measurement": "remaining activity at 1 µM", "setting": "[7]", "value": 94, "unit": "%"},
      {"measurement": "remaining activity at 1 µM", "setting": "[8]", "value": 90, "unit": "%"},
      {"measurement": "remaining activity at 1 µM", "setting": "[9]", "value": 95, "unit": "%"},
      {"measurement": "remaining activity at 1 µM", "setting": "[10]", "value": 85, "unit": "%"},
      {"measurement": "remaining activity at 1 µM", "setting": "[11]", "value": 91, "unit": "%"},
      {"measurement": "remaining activity at 1 µM", "setting": "[12]", "value": 113, "unit": "%"},
      {"measurement": "remaining activity at 1 µM", "setting": "[13]", "value": 87, "unit": "%"},
      {"measurement": "remaining activity at 1 µM", "setting": "[14]", "value": 47, "unit": "%"},
      {"measurement": "remaining activity at 1 µM", "setting": "[15]", "value": 80, "unit": "%"},
      {"measurement": "remaining activity at 1 µM", "setting": "[16]", "value": 100, "unit": "%"},
      {"measurement": "remaining activity at 1 µM", "setting": "[17]", "value": 100, "unit": "%"},
      {"measurement": "remaining activity at 1 µM", "setting": "[18]", "value": 82, "unit": "%"},
      {"measurement": "remaining activity at 1 µM", "setting": "[19]", "value": 82, "unit": "%"},
      {"measurement": "remaining activity at 1 µM", "setting": "[20]", "value": 84, "unit": "%"},
      {"measurement": "remaining activity at 1 µM", "setting": "[21]", "value": 71, "unit": "%"},
      {"measurement": "remaining activity at 1 µM", "setting": "[22]", "value": 107, "unit": "%"},
      {"measurement": "remaining activity at 1 µM", "setting": "[23]", "value": 91, "unit": "%"},
      {"measurement": "remaining activity at 1 µM", "setting": "[24]", "value": 115, "unit": "%"},
      {"measurement": "remaining activity at 1 µM", "setting": "[25]", "value": 56, "unit": "%"},
      {"measurement": "remaining activity at 1 µM", "setting": "[26]", "value": 97, "unit": "%"},
      {"measurement": "remaining activity at 1 µM", "setting": "[27]", "value": 80, "unit": "%"},
      {"measurement": "remaining activity at 1 µM", "setting": "[28]", "value": 98, "unit": "%"},
      {"measurement": "remaining activity at 1 µM", "setting": "[29]", "value": 68, "unit": "%"},
      {"measurement": "remaining activity at 1 µM", "setting": "[30]", "value": 90, "unit": "%"},
      {"measurement": "remaining activity at 1 µM", "setting": "[31]", "value": 85, "unit": "%"},
      {"measurement": "remaining activity at 1 µM", "setting": "[32]", "value": 99, "unit": "%"},
      {"measurement": "remaining activity at 1 µM", "setting": "[33]", "value": 100, "unit": "%"},
      {"measurement": "remaining activity at 1 µM", "setting": "[34]", "value": 37, "unit": "%"},
      {"measurement": "remaining activity at 1 µM", "setting": "[35]", "value": 80, "unit": "%"},
      {"measurement": "remaining activity at 1 µM", "setting": "[36]", "value": 79, "unit": "%"},
      {"measurement": "remaining activity at 1 µM", "setting": "[37]", "value": 72, "unit": "%"},
      {"measurement": "remaining activity at 1 µM", "setting": "[38]", "value": 90, "unit": "%"}
    ]}
  ]
}
